Laboratory results published in patent US8450357B2, “Compositions comprising an aryl pyrazole and/or a formamidine, methods and uses thereof” (Merial Limited, priority 2008, dated 2013).

Assays:
[1] = test system: adult Rhipicephalus sanguineus; test: Tick motility petri dish assay with imaging system, amitraz and fipronil; type: in vivo; settings: for Geometric Mean of movement values for stimulated ticks: amitraz 0.32 ug/cm^2, fipronil serial dilutions 1.3-0.005 ug/cm^2; for motility of ticks over time: compound alone, compared to solvent control treated ticks
Excerpt: An imaging system was used for the automated analysis of tick motility in response to amitraz and fipronil treatments to remove the subjective interpretation of manual test evaluation. The study was designed to evaluate the affect of amitraz and fipronil alone and in combination, as compared to a control, on the motility of ticks over time.
The motility of adult Rhipicephalus sanguineus was compared for amitraz-only, fipronil-only and the combination of fipronil and amitraz in a petri dish assay using the imaging system. The assay was run using a fixed dilution of amitraz (0.32 ug/cm^2), with serial dilutions of fipronil (1.3, 0.33, 0.08, 0.02, or 0.005 ug/cm^2) alone and in combination with the fixed dilution of amitraz. Six independent replications were conducted.
A plate holding four petri dishes was custom made for the imaging system. At each time point the plate holding four petri dishes was placed on the imaging system and evaluated for motility. The set up of the plate for each evaluation is illustrated below in Table 21.
For Dish A1, a volume of 625 μL of ethanol was used to treat the tops and 625 μL to treat the bottoms of the petri dish. All solutions were formulated in 100% ethanol. For Dish A2, a volume of 125 μL of the 25 ppm amitraz solution was used to treat the tops and 125 μL to treat the bottoms of the petri dish. For Dish B1, the top and bottom portions of the petri dishes were each treated with 500 μL of the 25 ppm solution of fipronil (serially diluted for each Plate 1-5) and 125 μL of the 25 ppm solution of amitraz. And for Dish B2, each of the top and bottom portions of the petri dishes were treated with 500 μL of the 25 ppm solution of fipronil (serially diluted for each Plate 1-5). After application of the corresponding solution to the petri dishes, the petri dishes were left open under a fan and allowed to dry for 1 hour. After drying, the dishes were infested with 10 adult Rhipicephalus sanguineus (supplied by Ecto Services, Inc. Henderson, N.C.). The ticks were left undisturbed for 1 hour before evaluation in the imaging system. Between evaluations ticks were maintained at approximately 21° C. and 60% RH.
After the initial hour, each Plate 1-5 was sequentially placed into the imaging system for evaluation. Image processing calculates the change in movement of the ticks between each image. The value generated is equal to the movement in each petri dish during the image time. The ticks in each individual petri dish were then stimulated to move by breathing/exhaling into the plate. After stimulation, the plates were placed back into the imaging system for another evaluation to determine if the treatment affected the tick's ability to move. Image capture was repeated as in the pre-stimulated evaluation.
Evaluations were made at 1, 4, 18, and 24 hours post infest (hpi) for 3 trials. For 3 trials the 4 hour evaluation was not done and for 3 trials the third evaluation was done at 21 to 22 hours. Raw data values were exported from the imaging system and comparative analysis of treatments over time was conducted.

[2] = Stability of amitraz in solution, aged at 50° C., HPLC; type: physicochemical; settings: 28 % (w/v) Amitraz in Methyl isobutyl ketone (MIK)
Procedure: Formulation comprising amitraz in anisole (formulation L), butyl acetate (formulation M), methyl isobutyl ketone and ethyl benzoate were evaluated for stability by HPLC, similarly to the stability study for formulations comprising compound 1. Thus the formulations were tested for initial concentration of amitraz % (w/v) and aged at 50° C. for three months. The concentration of amitraz in each formulation was determined at 1 month, 2 months and 3 months to determine the stability of amitraz in each formulation.

[3] = test system: Rhipicephalus sanguineus ticks; test: Study C: tick efficacy of Compound 1 and fipronil alone and with amitraz in dogs; type: in vivo
Procedure: The effectiveness of Compound 1 alone, fipronil alone, Compound 1 in combination with amitraz, or fipronil in combination with amitraz, when administered once as topical solutions to dogs against induced infestations of Rhipicephalus sanguineus and Ctenocephalides felis were determined in a third clinical study. Thirty-six beagles (18 males and 18 females) were selected for the study. Six replicates of 6 animals each were formed. Treatment Group 1 dogs were treated with a placebo. Treatment Groups 2, 3, 4, 5 and 6 received their respective treatments as a topical spot-on application once on Day 0. Each formulation included diethyleneglycol monoethyl ether (transcutol) as carrier. The Treatment Groups were: Treatment Group 2: fipronil at 0.1 mL/kg body weight (10 mg/kg); Treatment Group 3: Compound 1 at 0.1 mL/kg (10 mg/kg) body weight; Treatment Group 4: Compound 1 at 0.2 mL/kg (20 mg/kg) body weight; Treatment Group 5: Compound 1 at 0.1 mL/kg (10 mg/kg) body weight plus amitraz at 0.04 mL/kg (8 mg/kg) body weight; Treatment Group 6: fipronil at 0.1 mL/kg (10 mg/kg) body weight plus amitraz at 0.04 mL/kg (8 mg/kg) body weight. Treatment was applied by parting the hair and applying the formulation(s) directly onto the skin on one spot at the midline of the neck, except for Groups 4, 5 and 6 which were applied in approximately equal volumes on two spots, one spot between the base of the skull and the shoulder blades and the other at the front of the shoulder blades.
All dogs were infested with approximately 50 Rhipicephalus sanguineus ticks on Days −1, 7, 14, 21, 28, 35, 42, 49 and 56. Dogs were also infested with approximately 100 Ctenocephalides felis fleas on Days −1, 8, 15, 22, 29, 36, 43, 50 and 57. […] Tables 8 and 9 below show the % efficacy of formulations comprising fipronil at 0.1 ml/kg of body weight, Compound 1 at […], and fipronil and Compound 1 both at 10 ml/kg in combination with amitraz at 0.04 ml/kg of body weight compared to control group without active compounds. The percent reduction in flea counts of the treated groups with respect to the Control group over the study is shown in FIG. 14.

Compound | Geometric Mean of movement values for stimulated ticks ([1]; 21-22 hours post infestation) | Geometric Mean of movement values for stimulated ticks ([1]; 1 hours post infestation) | Geometric Mean of movement values for stimulated ticks ([1]; 4 hours post infestation) | Geometric Mean of movement values for stimulated ticks ([1]; 18 hours post infestation) | Geometric Mean of movement values for stimulated ticks ([1]; 24 hours post infestation) | motility of ticks over time [1] | % Efficacy (Tick Efficacy) ([3]; Day 1, 10 mg/kg) | % Efficacy (Tick Efficacy) ([3]; Day 2, 10 mg/kg) | % Efficacy (Tick Efficacy) ([3]; Day 8, 10 mg/kg) | % Efficacy (Tick Efficacy) ([3]; Day 9, 10 mg/kg) | % Efficacy (Tick Efficacy) ([3]; Day 15, 10 mg/kg) | % Efficacy (Tick Efficacy) ([3]; Day 16, 10 mg/kg) | % Efficacy (Tick Efficacy) ([3]; Day 23, 10 mg/kg) | % Efficacy (Tick Efficacy) ([3]; Day 30, 10 mg/kg) | % Efficacy (Tick Efficacy) ([3]; Day 37, 10 mg/kg) | % Efficacy (Tick Efficacy) ([3]; Day 44, 10 mg/kg) | % Efficacy (Tick Efficacy) ([3]; Day 51, 10 mg/kg) | % Efficacy (Tick Efficacy) ([3]; Day 58, 10 mg/kg) | also measured
Cc1ccc(/N=C/N(C)/C=N/c2ccc(C)cc2C)c(C)c1 [Amitraz, amitraz] | 30,300 | 56,900 | 44,300 | 33,200 | 34,300 | increase in motility | – | – | – | – | – | – | – | – | – | – | – | – | Amitraz % theoretical ([2]; 1 month at 50° C.): 93 % theoretical; Amitraz % theoretical ([2]; 2 months at 50° C.): 98 % theoretical; Amitraz % theoretical ([2]; 3 months at 50° C.): 100 % theoretical
Cc1c([S+]([O-])C(F)(Cl)Cl)c(C#N)nn1-c1c(F)cc(C(F)(F)F)cc1Cl (stereo not drawn) [Compound 1, 3-cyano-1-(2-chloro-6-fluoro-4-trifluoromethylphenyl)-4-dichlorofluoromethylsulfinyl-5-methyl-1H-pyrazole] | – | – | – | – | – | – | 88.1% | 96.8% | 93.5% | 97.7% | 98.5% | 100% | 98.4% | 99% | 94.3% | 92.4% | 84.7% | 83.1% | % Efficacy (Tick Efficacy) ([3]; Day 1, 20 mg/kg): 98.6%; % Efficacy (Tick Efficacy) ([3]; Day 2, 20 mg/kg): 98.9%; % Efficacy (Tick Efficacy) ([3]; Day 8, 20 mg/kg): 98.6%; % Efficacy (Tick Efficacy) ([3]; Day 9, 20 mg/kg): 100%; % Efficacy (Tick Efficacy) ([3]; Day 15, 20 mg/kg): 99.3%; % Efficacy (Tick Efficacy) ([3]; Day 16, 20 mg/kg): 100%; % Efficacy (Tick Efficacy) ([3]; Day 23, 20 mg/kg): 100%; % Efficacy (Tick Efficacy) ([3]; Day 30, 20 mg/kg): 99.5%; % Efficacy (Tick Efficacy) ([3]; Day 37, 20 mg/kg): 98.6%; % Efficacy (Tick Efficacy) ([3]; Day 44, 20 mg/kg): 92.3%; % Efficacy (Tick Efficacy) ([3]; Day 51, 20 mg/kg): 86.5%; % Efficacy (Tick Efficacy) ([3]; Day 58, 20 mg/kg): 87.4%
N#Cc1nn(-c2c(Cl)cc(C(F)(F)F)cc2Cl)c(N)c1[S+]([O-])C(F)(F)F (stereo not drawn) [fipronil, 5-amino-3-cyano-1-(2,6-dichloro-4-trifluoromethylphenyl)-4-trifluoromethylsulfinylpyrazole] | 21,200 | 51,000 | 29,000 | 17,400 | 19,700 | reduction in motility | 88.6% | 90.9% | 99.4% | 100% | 100% | 100% | 98.8% | 100% | 99% | 98.2% | 92.8% | 82.7% | –
